Test results published in ChEMBL document CHEMBL4507325 (2021).

What was measured:
Details in all cases: Compound concentration 10.0 uM
[1] = target: D(3) dopamine receptor (Homo sapiens) (UniProt P35462)
[2] = target: Alpha-1B adrenergic receptor (Homo sapiens) (UniProt P35368)
[3] = target: Sodium-dependent noradrenaline transporter (Homo sapiens) (UniProt P23975)
[4] = target: Sodium-dependent noradrenaline transporter (Homo sapiens) (UniProt P23975); remark: listed apart in the source
[5] = target: Androgen receptor (Homo sapiens) (UniProt P10275)
[6] = target: Beta-1 adrenergic receptor (Homo sapiens) (UniProt P08588)
[7] = target: GABA-A receptor; anion channel (Rattus norvegicus) (UniProt O09028+P15431+P18506+P18508+P19969+P20236+P23574+P23576+P28471+P28473+P30191+P62813+P63079+P63138+Q91ZM7+Q9ES14)
[8] = target: Adenosine receptor A3 (Homo sapiens) (UniProt P0DMS8)
[9] = target: Sigma non-opioid intracellular receptor 1 (Homo sapiens) (UniProt Q99720)

Measured: inhibition

Chain of Sodium-dependent noradrenaline transporter (Homo sapiens) (P23975 whole entry): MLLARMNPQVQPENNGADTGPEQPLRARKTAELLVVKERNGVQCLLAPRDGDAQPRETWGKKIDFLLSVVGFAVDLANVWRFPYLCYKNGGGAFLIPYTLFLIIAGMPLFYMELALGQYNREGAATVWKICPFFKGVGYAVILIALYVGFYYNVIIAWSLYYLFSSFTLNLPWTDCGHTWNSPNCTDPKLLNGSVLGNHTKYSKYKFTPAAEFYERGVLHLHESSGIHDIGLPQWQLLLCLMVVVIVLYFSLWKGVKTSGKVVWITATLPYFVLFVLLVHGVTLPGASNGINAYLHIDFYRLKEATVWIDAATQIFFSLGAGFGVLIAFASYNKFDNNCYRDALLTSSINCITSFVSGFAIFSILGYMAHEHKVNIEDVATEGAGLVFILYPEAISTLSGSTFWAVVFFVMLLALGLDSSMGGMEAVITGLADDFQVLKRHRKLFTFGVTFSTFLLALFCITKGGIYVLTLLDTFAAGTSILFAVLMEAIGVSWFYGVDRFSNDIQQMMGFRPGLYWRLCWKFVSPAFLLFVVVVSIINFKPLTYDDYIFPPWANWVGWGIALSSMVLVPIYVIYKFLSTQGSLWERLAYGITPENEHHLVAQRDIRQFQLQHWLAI
Chain of Androgen receptor (Homo sapiens) (P10275 whole entry): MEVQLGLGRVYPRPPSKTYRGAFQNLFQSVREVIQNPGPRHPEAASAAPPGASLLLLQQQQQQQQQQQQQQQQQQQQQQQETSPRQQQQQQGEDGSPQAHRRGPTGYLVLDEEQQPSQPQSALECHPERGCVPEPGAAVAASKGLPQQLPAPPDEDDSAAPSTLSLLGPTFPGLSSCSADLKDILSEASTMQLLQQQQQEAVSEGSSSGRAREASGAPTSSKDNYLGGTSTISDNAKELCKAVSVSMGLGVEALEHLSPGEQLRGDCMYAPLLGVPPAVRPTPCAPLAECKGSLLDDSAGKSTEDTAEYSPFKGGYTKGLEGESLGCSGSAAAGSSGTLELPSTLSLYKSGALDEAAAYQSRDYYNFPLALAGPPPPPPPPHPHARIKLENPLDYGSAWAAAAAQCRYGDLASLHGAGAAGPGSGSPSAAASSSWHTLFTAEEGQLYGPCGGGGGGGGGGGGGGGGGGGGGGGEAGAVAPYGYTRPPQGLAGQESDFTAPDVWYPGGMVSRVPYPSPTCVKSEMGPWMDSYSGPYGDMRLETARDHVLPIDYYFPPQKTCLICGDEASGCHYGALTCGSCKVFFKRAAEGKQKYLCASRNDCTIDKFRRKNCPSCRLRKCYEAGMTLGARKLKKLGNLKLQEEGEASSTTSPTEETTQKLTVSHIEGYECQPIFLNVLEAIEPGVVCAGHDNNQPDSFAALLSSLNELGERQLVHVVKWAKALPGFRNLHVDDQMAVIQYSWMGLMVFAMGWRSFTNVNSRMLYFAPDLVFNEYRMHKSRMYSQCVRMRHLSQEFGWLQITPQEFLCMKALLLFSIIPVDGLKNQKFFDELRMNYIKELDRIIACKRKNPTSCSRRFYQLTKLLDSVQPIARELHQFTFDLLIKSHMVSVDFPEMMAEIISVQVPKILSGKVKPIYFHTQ
Chain of D(3) dopamine receptor (Homo sapiens) (P35462 whole entry): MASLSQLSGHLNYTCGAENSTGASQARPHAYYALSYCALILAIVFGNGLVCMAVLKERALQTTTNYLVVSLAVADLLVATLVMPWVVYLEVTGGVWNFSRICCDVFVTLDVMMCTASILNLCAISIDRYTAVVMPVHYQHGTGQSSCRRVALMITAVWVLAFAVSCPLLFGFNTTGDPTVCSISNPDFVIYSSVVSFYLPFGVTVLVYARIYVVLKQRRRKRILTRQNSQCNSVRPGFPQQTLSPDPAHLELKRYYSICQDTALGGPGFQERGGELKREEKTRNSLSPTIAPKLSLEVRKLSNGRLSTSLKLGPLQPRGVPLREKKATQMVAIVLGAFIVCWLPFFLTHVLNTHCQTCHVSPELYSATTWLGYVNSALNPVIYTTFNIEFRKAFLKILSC
Chain of Sigma non-opioid intracellular receptor 1 (Homo sapiens) (Q99720 whole entry): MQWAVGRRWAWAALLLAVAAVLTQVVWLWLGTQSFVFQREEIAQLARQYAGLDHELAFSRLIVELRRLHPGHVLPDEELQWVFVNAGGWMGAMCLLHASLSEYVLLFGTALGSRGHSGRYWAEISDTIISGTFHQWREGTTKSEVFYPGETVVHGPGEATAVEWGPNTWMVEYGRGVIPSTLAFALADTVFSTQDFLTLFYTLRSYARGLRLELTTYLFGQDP
Chain of Alpha-1B adrenergic receptor (Homo sapiens) (P35368 whole entry): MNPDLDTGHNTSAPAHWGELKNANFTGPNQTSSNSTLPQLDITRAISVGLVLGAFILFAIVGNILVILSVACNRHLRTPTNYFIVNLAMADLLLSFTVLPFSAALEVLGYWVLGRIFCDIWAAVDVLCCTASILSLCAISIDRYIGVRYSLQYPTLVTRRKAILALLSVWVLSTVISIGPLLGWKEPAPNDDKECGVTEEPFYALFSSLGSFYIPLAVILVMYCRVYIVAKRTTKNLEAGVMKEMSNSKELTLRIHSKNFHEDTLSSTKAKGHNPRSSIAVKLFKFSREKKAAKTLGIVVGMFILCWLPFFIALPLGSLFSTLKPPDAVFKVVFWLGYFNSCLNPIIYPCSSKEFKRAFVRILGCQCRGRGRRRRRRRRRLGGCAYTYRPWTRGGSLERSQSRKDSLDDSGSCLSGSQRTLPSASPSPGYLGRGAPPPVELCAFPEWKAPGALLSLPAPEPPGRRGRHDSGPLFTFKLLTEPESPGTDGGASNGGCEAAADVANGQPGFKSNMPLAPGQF
Chain of Adenosine receptor A3 (Homo sapiens) (P0DMS8 whole entry): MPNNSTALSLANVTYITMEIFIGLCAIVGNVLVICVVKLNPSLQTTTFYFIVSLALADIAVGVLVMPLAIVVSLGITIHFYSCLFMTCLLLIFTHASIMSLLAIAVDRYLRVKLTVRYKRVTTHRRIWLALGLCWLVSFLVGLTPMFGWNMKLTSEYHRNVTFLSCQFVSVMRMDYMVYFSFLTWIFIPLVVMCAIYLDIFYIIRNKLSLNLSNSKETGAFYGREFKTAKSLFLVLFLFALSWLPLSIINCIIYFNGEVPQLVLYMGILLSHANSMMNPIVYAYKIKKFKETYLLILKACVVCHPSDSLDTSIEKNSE
Chain of Beta-1 adrenergic receptor (Homo sapiens) (P08588 whole entry, looked up): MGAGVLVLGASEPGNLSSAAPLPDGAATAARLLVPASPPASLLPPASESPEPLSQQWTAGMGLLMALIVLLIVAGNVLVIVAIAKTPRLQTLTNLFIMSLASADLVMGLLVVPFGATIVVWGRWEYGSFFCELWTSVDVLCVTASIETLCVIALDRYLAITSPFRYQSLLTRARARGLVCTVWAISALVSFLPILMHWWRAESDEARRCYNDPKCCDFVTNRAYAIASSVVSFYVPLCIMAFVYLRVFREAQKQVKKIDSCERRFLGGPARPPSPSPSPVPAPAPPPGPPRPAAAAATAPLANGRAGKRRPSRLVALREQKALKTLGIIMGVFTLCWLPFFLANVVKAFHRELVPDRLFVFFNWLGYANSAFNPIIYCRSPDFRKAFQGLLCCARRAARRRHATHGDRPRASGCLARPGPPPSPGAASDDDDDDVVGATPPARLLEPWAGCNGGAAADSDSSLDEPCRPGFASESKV

Cc1ccccc1Oc1cc(-n2c(=O)cc(C(F)(F)F)[nH]c2=O)c2ccccc2c1Cl [BAY-069]
inactive: [1] 14% | [2] 19.3% | [3] 22% | [4] -1.01% | [5] 9% | [6] -5.52% | [7] 4% | [8] -2% | [9] 19%
